Read-outs that look alike come from different tables or passages of the source. Values belong to the compound of their own block, whether it stands above or below them.
Tests used:
[1] = Population pharmacokinetic analysis of NA/EE tablets; details: for average steady-state concentrations (Css): femhrt ⅕ (1 mg NA/5 mcg EE), estimated from population pharmacokinetic analysis
Description: However, the multiple-dose pharmacokinetics were studied at a dose of 1 mg NA/10 mcg EE in 18 postmenopausal women.

[2] = Distribution: volume of distribution; details: human, in vivo
Text: (§1) Volume of distribution of norethindrone and EE ranges from 2 to 4 L/kg. Plasma protein binding of both steroids is extensive (>95%); norethindrone binds to both albumin and SHBG, whereas EE binds only to albumin.

[3] = Absorption and bioavailability after oral administration of femhrt ⅕ / NA/EE tablets; type: in vivo; details: for bioavailability: human, after oral dosing, first-pass metabolism, read-out: absolute bioavailability
Description: The term “effective dose” means the amount of a progestin and an estrogen required to delay the onset or treat symptoms manifested by skin aging or acne in a particular patient. […] Norethindrone acetate and EE are rapidly absorbed from femhrt ⅕ tablets, with maximum plasma concentrations of norethindrone and EE generally occurring 1 to 2 hours postdose. […] For example, a method for preventing and treating acne in a patient in need of treatment comprising administering an effective amount of Estrostep which contains 1 mg NA and a gradually increasing dose of ethinyl estradiol; 20 mcg×5 days, 30 mcg×7 days, and 35 mcg×9 days in a pharmaceutically acceptable carrier. Other dosage forms may be administered.
Norethindrone acetate and EE are rapidly absorbed from femhrt ⅕ tablets, with maximum plasma concentrations of norethindrone and EE generally occurring 1 to 2 hours postdose. […] The extent of norethindrone absorption is increased by 27% following administration of NA/EE tablets with food.

Plasma protein binding = type: in vitro ADME; details: human
Text: as §1

[4] = Multiple-dose pharmacokinetics of 1 mg NA/10 mcg EE tablets in 18 postmenopausal women; type: in vivo, human; details: for Tmax / Cmax / AUC(0-t) / half-life: female, human; for AUC(0-t): read-out: AUC(0-24); for half-life: read-out: t½ (converted)
[5] = plasma, oral, Single-Dose (Day 1), 1 mg NA/10 mcg EE tablets, Mean (SD)
[6] = plasma, oral, Steady-State (Day 87), 1 mg NA/10 mcg EE tablets, Mean (SD)

average steady-state concentrations (Css) [1]: 0.0114 ng/mL
dose proportionality of mean steady-state plasma concentrations ([1]; in vivo): proportional to dose
dose proportionality of steady-state concentrations ([1]; in vivo): less than proportional increase
effect of age on pharmacokinetics ([1]; in vivo): not affected by age
Vd [2]: 2 to 4 L/kg
bioavailability ([3]; in vivo): ~55%
effect of high fat meal on absorption ([3]; in vivo): decreases rate but not extent
fraction unbound (Plasma protein binding): < 0.05
Tmax ([4]; in vivo, Tmax): 2.2 h
Structure (SMILES): C#C[C@]1(O)CC[C@H]2C3CCc4cc(O)ccc4[C@H]3CCC21C (stereo partly drawn) [Ethinyl Estradiol]

effect of age on pharmacokinetics ([1]; in vivo): not affected by age
deacetylation to norethindrone ([3]; in vivo, po): completely and rapidly deacetylated
Structure (SMILES): C#C[C@]1(OC(C)=O)CC[C@H]2C3CCC4=CC(=O)CCC4[C@H]3CCC21C (stereo partly drawn) [NA, (17-alpha)-17-(acetyloxy)-19-norpregna-4-en-20-yn-3-one]

dose proportionality of mean steady-state concentrations ([1]; 1 mg NA/5 mcg EE and 1/10 compared to 0.5 mg NA/2.5 mcg EE tablets): slightly more than proportional to dose
average steady-state concentrations (Css) [1]: 2.6 ng/mL
Vd [2]: 2 to 4 L/kg
increase of extent of absorption with food ([3]; NA/EE tablets with food): 27%
bioavailability ([3]; in vivo): ~64%
fraction unbound (Plasma protein binding): < 0.05
CL/F ([4]; Single-Dose (Day 1), 1 mg NA/10 mcg EE tablets, Mean (SD)): 588 (416) mL/min
CL/F ([4]; Steady-State (Day 87), 1 mg NA/10 mcg EE tablets, Mean (SD)): 226 (139) mL/min
Cmax [4, 5]: 6 ng/mL
AUC(0-t) [4, 5]: 29.7 ng·h/mL
Tmax ([4]; plasma, oral, Single-Dose (Day 1), 1 mg NA/10 mcg EE tablets, Mean (SD), read-out: Tmax): 1.8 h
half-life [4, 5]: 10.3 h
Cmax [4, 6]: 10.7 ng/mL
AUC(0-t) [4, 6]: 81.8 ng·h/mL
Tmax ([4]; plasma, oral, Steady-State (Day 87), 1 mg NA/10 mcg EE tablets, Mean (SD), read-out: Tmax): 1.8 h
half-life [4, 6]: 13.3 h
Structure (SMILES): C#C[C@]1(O)CC[C@H]2[C@@H]3CCC4=CC(=O)CC[C@@H]4[C@H]3CC[C@@]21C [Norethindrone, norethindrone]

Reference: patent US20020197286A1, “Method for preventing and treating skin aging” (priority 2001, published 2002)
